Assay results: patent US11234437B2 (priority 2017, dated 2022)

How the values were obtained:
[1] = test system: Botryotinia fuckeliana (Botrytis cinerea); assay: Botryotinia fuckeliana (Botrytis cinerea) / liquid culture (gray mould); assay type: cell-based; details: compared to untreated control
Protocol: Botryotinia fuckeliana (Botrytis cinerea)/Liquid Culture (Gray Mould)
(§1) Conidia of the fungus from cryogenic storage are directly mixed into nutrient broth (Vogels broth). After placing a (DMSO) solution of test compound into a microtiter plate (96-well format), the nutrient broth containing the fungal spores is added. The test plates are incubated at 24° C. and the inhibition of growth is determined photometrically 3-4 days after application.

[2] = test system: Glomerella lagenarium (Colletotrichum lagenarium); assay: Glomerella lagenarium (Colletotrichum lagenarium) / liquid culture (anthracnose); assay type: cell-based; details: Colletotrichum orbiculare, compared to untreated control
Protocol: as §1, with “(PDB potato dextrose” for “(Vogels”, “measured” for “determined”

Fusarium culmorum [3] = assay: microbe, parasite or virus in culture; assay type: cell-based; details: read-out: control of Fusarium culmorum
Fusarium culmorum [4] = assay: whole plant or invertebrate; assay type: in vivo; details: in Triticum aestivum, read-out: control of Fusarium culmorum
[5] = test system: Gibberella zeae (Fusarium graminearum); assay: whole plant or invertebrate; assay type: in vivo; details: in Triticum aestivum, read-out: control of Gibberella zeae
[6] = test system: Monographella nivalis (Microdochium nivale); assay: Monographella nivalis (Microdochium nivale) / liquid culture (foot rot cereals); assay type: cell-based; details: compared to untreated control
Protocol: Monographella nivalis (Microdochium nivale)/Liquid Culture (Foot Rot Cereals)
as §1, with “(PDB potato dextrose” for “(Vogels”, “4-5” for “3-4”

[7] = test system: Magnaporthe grisea (Pyricularia oryzae); assay: microbe, parasite or virus in culture; assay type: cell-based; details: read-out: control of Magnaporthe grisea
Sclerotinia sclerotiorum = Sclerotinia sclerotiorum / liquid culture (cottony rot); assay type: cell-based; details: compared to untreated control
Protocol: Sclerotinia sclerotiorum/Liquid Culture (Cottony Rot)
as §1, with “Mycelia fragments of a newly grown liquid culture” for “Conidia”, “fungus” for “fungus from cryogenic storage”, “format)” for “format),”, “material” for “spores”

Structure (SMILES) | inhibition of growth at 200 ppm [1] [%] | inhibition of growth at 200 ppm [2] [%] | inhibition of growth at 200 ppm (Fusarium culmorum [3]) [%] | pest or weed control at 200 ppm (Fusarium culmorum [4]) [%] | pest or weed control at 200 ppm [5] [%] | inhibition of growth at 20 ppm [6] [%] | inhibition of growth at 20 ppm [7] [%] | inhibition of growth at 20 ppm (Sclerotinia sclerotiorum) [%] | melting point [°C]
C=C(Cl)C[C@](C)(Cc1ccccc1)NC(=O)c1cnc2c(F)cccc2c1 [Compound F-35] | ≥ 80 | ≥ 80 | ≥ 80 | ≥ 80 | ≥ 80 | ≥ 80 | ≥ 80 | ≥ 80 | 
CC(Cc1ccccc1)(CC(F)(F)F)NC(=O)c1cnc2ccccc2c1 (stereo not shown) [X.020, N-(1-benzyl-3,3,3-trifluoro-1-methyl-propyl)quinoline-3-carboxamide] | ≥ 80 | ≥ 80 | ≥ 80 | ≥ 80 | ≥ 80 |  | ≥ 80 | ≥ 80 | 130 to 132
C[C@@](Cc1cccc(F)c1)(CC(F)(F)F)NC(=O)c1cnc2c(F)cccc2c1 [Compound F-27, 8-fluoro-N-[(1R)-3,3,3-trifluoro-1-[(3-fluorophenyl)methyl]-1-methyl-propyl]quinoline-3-carboxamide] | ≥ 80 | ≥ 80 | ≥ 80 | ≥ 80 | ≥ 80 | ≥ 80 | ≥ 80 |  | 
C[C@@](Cc1ccccc1)(CC(F)(F)F)NC(=O)c1cnc2ccccc2c1 [Compound F-33, N-[(1R)-1-benzyl-3,3,3-trifluoro-1-methyl-propyl]quinoline-3-carboxamide] | ≥ 80 | ≥ 80 | ≥ 80 | ≥ 80 |  |  |  |  | 
C[C@](Cc1cccc(F)c1)(CC(F)(F)F)NC(=O)c1cnc2c(F)cccc2c1 [Compound F-28, 8-fluoro-N-[(1S)-3,3,3-trifluoro-1-[(3-fluorophenyl)methyl]-1-methyl-propyl]quinoline-3-carboxamide] | ≥ 80 | ≥ 80 | ≥ 80 | ≥ 80 | ≥ 80 |  | ≥ 80 | ≥ 80 | 
CC(C)C[C@@](C)(Cc1cccc(F)c1)NC(=O)c1cnc2c(F)cccc2c1 [Compound F-30, 8-fluoro-N-[(1S)-1-[(3-fluorophenyl)methyl]-1,3-dimethyl-butyl]quinoline-3-carboxamide] | ≥ 80 | ≥ 80 | ≥ 80 | ≥ 80 |  | ≥ 80 | ≥ 80 |  | 
CC(C)C[C@@](C)(Cc1ccccc1)NC(=O)c1cnc2c(F)c(F)ccc2c1 [Compound F-13, N-[(1S)-1-benzyl-1,3-dimethyl-butyl]-7,8-difluoro-quinoline-3-carboxamide] |  |  |  | ≥ 80 | ≥ 80 |  | ≥ 80 |  | 
CC1(C[C@](C)(Cc2ccccc2)NC(=O)c2cnc3c(F)cccc3c2)CC1 [Compound F-25, N-[(1R)-1-benzyl-1-methyl-2-(1-methylcyclopropyl)ethyl]-8-fluoro-quinoline-3-carboxamide] | ≥ 80 | ≥ 80 | ≥ 80 | ≥ 80 | ≥ 80 |  | ≥ 80 | ≥ 80 | 
C=C(Cl)CC(C)(Cc1ccccc1)NC(=O)c1cnc2c(F)cccc2c1 (stereo not shown) [X.001] | ≥ 80 | ≥ 80 | ≥ 80 | ≥ 80 | ≥ 80 | ≥ 80 | ≥ 80 | ≥ 80 | 56 to 59
C[C@](Cc1ccccc1)(CC1(F)CC1)NC(=O)c1cnc2c(F)cccc2c1 [Compound F-24, N-[(1S)-1-benzyl-2-(1-fluorocyclopropyl)-1-methyl-ethyl]-8-fluoro-quinoline-3-carboxamide] | ≥ 80 | ≥ 80 | ≥ 80 | ≥ 80 | ≥ 80 | ≥ 80 | ≥ 80 | ≥ 80 | 
CC(C)C[C@](C)(Cc1cccc(F)c1)NC(=O)c1cnc2c(F)cccc2c1 [Compound F-29, 8-fluoro-N-[(1R)-1-[(3-fluorophenyl)methyl]-1,3-dimethyl-butyl]quinoline-3-carboxamide] | ≥ 80 | ≥ 80 | ≥ 80 | ≥ 80 | ≥ 80 |  | ≥ 80 | ≥ 80 | 
Cc1cccc2cc(C(=O)N[C@@](C)(Cc3ccccc3)CC(F)(F)F)cnc12 [Compound F-17, N-[(1S)-1-benzyl-3,3,3-trifluoro-1-methyl-propyl]-8-methyl-quinoline-3-carboxamide] |  |  |  |  |  | ≥ 80 | ≥ 80 | ≥ 80 | 
CC(Cc1ccccc1)(CC1(F)CC1)NC(=O)c1cnc2c(F)cccc2c1 (stereo not shown) [X.013, N-[1-benzyl-2-(1-fluorocyclopropyl)-1-methyl-ethyl]-8-fluoro-quinoline-3-carboxamide] | ≥ 80 | ≥ 80 | ≥ 80 |  |  | ≥ 80 | ≥ 80 | ≥ 80 | 119 to 121
CC(Cc1cccc(F)c1)(CC(F)(F)F)NC(=O)c1cnc2c(F)cccc2c1 (stereo not shown) [X.012, 8-fluoro-N-[3,3,3-trifluoro-1-[(3-fluorophenyl)methyl]-1-methyl-propyl]quinoline-3-carboxamide] |  |  |  |  | ≥ 80 | ≥ 80 | ≥ 80 | ≥ 80 | 149 to 151
C[C@](Cc1ccccc1)(CC(F)(F)F)NC(=O)c1cnc2ccccc2c1 [Compound F-34, N-[(1S)-1-benzyl-3,3,3-trifluoro-1-methyl-propyl]quinoline-3-carboxamide] | ≥ 80 | ≥ 80 | ≥ 80 | ≥ 80 | ≥ 80 | ≥ 80 | ≥ 80 | ≥ 80 | 
C[C@@](Cc1ccccc1)(CC1(F)CC1)NC(=O)c1cnc2c(F)cccc2c1 [Compound F-23, N-[(1R)-1-benzyl-2-(1-fluorocyclopropyl)-1-methyl-ethyl]-8-fluoro-quinoline-3-carboxamide] | ≥ 80 | ≥ 80 | ≥ 80 | ≥ 80 |  | ≥ 80 | ≥ 80 |  | 
